From patent publication US20220323406A1, “METHODS AND COMPOSITIONS FOR DIFFERENTIATING STEM CELLS” (Massachusetts Institute of Technology, priority 2019, published 2022)

Legend:
Conditions in all cases: primary screen
ENR+CD organoids = assay: Primary screen: ATP (CellTiter-Glo 3D, CTG) cell number/viability, 2.5-D 384-well ENR+CD organoids;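 also: compounds given at plating and again on day 3 over a 6-day differentiation from ENR+CV stem-cell-enriched precursors, ATP measured on day 6, plate median as control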
[1] = test system: ENR+CD organoids (ISC to Paneth cell differentiation); assay: Primary screen: basal (non-stimulated) lysozyme secretion LYZ.NS, 2.5-D 384-well ENR+CD organoid differentiation; assay type: cell-based, mouse
Source text: (§1) High-throughput screening.

[2] = test system: ENR+CD organoids (ISC to Paneth cell differentiation); assay: Primary screen: CCh-stimulated lysozyme secretion LYZ.S, 2.5-D 384-well ENR+CD organoid differentiation; assay type: cell-based, mouse
Source text: as §1

SMILES	Dose.FC.CTG (log2 fold change) (ENR+CD organoids; dose 0.08 uM)	Z.CTG (standard z score) (ENR+CD organoids; dose 0.08 uM)	Dose.FC.CTG (log2 fold change) (ENR+CD organoids; dose 0.40 uM)	Z.CTG (standard z score) (ENR+CD organoids; dose 0.40 uM)	Dose.FC.CTG (log2 fold change) (ENR+CD organoids; dose 2.00 uM)	Z.CTG (standard z score) (ENR+CD organoids; dose 2.00 uM)	Dose.FC.CTG (log2 fold change) (ENR+CD organoids; dose 10.00 uM)	Z.CTG (standard z score) (ENR+CD organoids; dose 10.00 uM)	Dose.FC.LYZ.NS (log2 fold change) ([1]; dose 0.08 uM)	Z.LYZ.NS (standard z score) ([1]; dose 0.08 uM)	Dose.FC.LYZ.NS (log2 fold change) ([1]; dose 0.40 uM)	Z.LYZ.NS (standard z score) ([1]; dose 0.40 uM)	Dose.FC.LYZ.NS (log2 fold change) ([1]; dose 2.00 uM)	Z.LYZ.NS (standard z score) ([1]; dose 2.00 uM)	Dose.FC.LYZ.NS (log2 fold change) ([1]; dose 10.00 uM)	Z.LYZ.NS (standard z score) ([1]; dose 10.00 uM)	Dose.FC.LYZ.S (log2 fold change) ([2]; dose 0.08 uM)	Dose.FC.LYZ.S (log2 fold change) ([2]; dose 0.40 uM)	Dose.FC.LYZ.S (log2 fold change) ([2]; dose 2.00 uM)	Dose.FC.LYZ.S (log2 fold change) ([2]; dose 10.00 uM)
Cc1cc(Nc2cc(CN3CCOCC3)c3nc(C)c(Cc4ccc(Cl)cc4F)n3n2)n[nH]1 [LY2784544]	0.108	0.259	0.062	0.148	0.181	0.433	−0.831	−1.984	0.132	1.152	0.004	0.033	0.068	0.591	−0.280	−2.439	0.123	0.077	0.114	−0.367
O=C(C[S+]([O-])Cc1ccco1)NC/C=C\COc1cc(CN2CCCCC2)ccn1 (centres unmarked) [Lafutidine]	0.152		0.145		0.138		−0.098		0.043	0.372	0.007	0.059	0.037	0.320	0.075	0.657	0.052	0.078	0.076	−0.014
Nc1cccc2c1CN(C1CCC(=O)NC1=O)C2=O (centres unmarked) [Lenalidomide (CC-5013)]	0.046	0.110	−0.016	−0.037	−0.250	−0.596	−0.316	−0.754	0.147	1.283	0.099	0.863	0.071	0.615	−0.041	−0.360	0.099	0.176	0.025	−0.045
N#Cc1ccc(C(c2ccc(C#N)cc2)n2cncn2)cc1 [Letrozole]	−0.013		0.101		0.099		0.171		0.065	0.570	0.128	1.115	0.009	0.082	−0.008	−0.068	0.040	0.150	0.006	0.006
CCN1CCC[C@H]1CNC(=O)c1cc(S(N)(=O)=O)ccc1OC [Levosulpiride]	−0.043		−0.006		0.031		0.090		0.013	0.114	0.024	0.205	0.051	0.441	−0.028	−0.240	−0.017	0.128	0.124	−0.026
CCN(CC)CC(=O)Nc1c(C)cccc1C [Lidocaine]	−0.079		−0.153		0.034		−0.256		0.106	0.927	0.017	0.144	0.001	0.008	0.019	0.167	0.083	0.026	−0.038	−0.009
CC#CCn1c(N2CCC[C@@H](N)C2)nc2c1c(=O)n(Cc1nc(C)c3ccccc3n1)c(=O)n2C [Linagliptin]	0.163		0.209		0.023		−0.011		0.208	1.809	0.055	0.478	0.021	0.182	0.080	0.695	0.140	0.047	−0.032	0.050
Nc1nc(OCc2cc(Br)cs2)c2[nH]cnc2n1 [Lomeguatrib]	−0.426		−0.309		0.075		−0.080		−0.050	−0.437	−0.019	−0.161	−0.022	−0.193	−0.104	−0.908	−0.082	−0.022	−0.055	−0.138
CCOC(=O)N1CCC(=C2c3ccc(Cl)cc3CCc3cccnc32)CC1 [Loratadine]	−0.292		0.145		−0.204		−0.120		0.011	0.093	−0.001	−0.005	−0.108	−0.938	−0.101	−0.881	−0.076	0.011	−0.148	−0.148
